Consider one compound from publication PMC7873477, “Fermentative Production of L-2-Hydroxyglutarate by Engineered Corynebacterium glutamicum via Pathway Extension of L-Lysine Biosynthesis” (Frontiers in Bioengineering and Biotechnology, 2021).

Experiment [1] concerns the target T1, CsiD (HEGluA) (Escherichia coli, UniProt P76621).
T1 construct: gene glaH; untagged, from pVWEx1-ldcC-csiD(Ec) in C. glutamicum GSLA2G; whole-cell production
T1 sequence (P76621 1-325): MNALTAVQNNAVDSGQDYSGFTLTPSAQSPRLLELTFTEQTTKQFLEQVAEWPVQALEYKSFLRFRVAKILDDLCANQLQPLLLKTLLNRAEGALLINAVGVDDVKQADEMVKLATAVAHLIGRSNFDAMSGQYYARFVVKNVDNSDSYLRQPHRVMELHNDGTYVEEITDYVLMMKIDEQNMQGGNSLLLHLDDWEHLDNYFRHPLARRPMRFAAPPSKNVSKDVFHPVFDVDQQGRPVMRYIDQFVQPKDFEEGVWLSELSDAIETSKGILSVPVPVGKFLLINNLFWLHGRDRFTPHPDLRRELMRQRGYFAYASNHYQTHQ
The experiment can be described thus: L-2HG formation by engineered C. glutamicum, HPLC of supernatant. Type of experiment: cell-based, Corynebacterium glutamicum. The settings on record: whole cells, endogenously formed glutarate; Fe(II) and 2-oxoglutarate dependent; 96 h.

In experiment [2] the target is T2, CsiD (HPGluA) (Pseudomonas putida, UniProt Q88IU0).
T2 construct: gene glaH; untagged, from pVWEx1-ldcC-csiD(Pp) in C. glutamicum GSLA2G; whole-cell production
T2 sequence (Q88IU0 1-325): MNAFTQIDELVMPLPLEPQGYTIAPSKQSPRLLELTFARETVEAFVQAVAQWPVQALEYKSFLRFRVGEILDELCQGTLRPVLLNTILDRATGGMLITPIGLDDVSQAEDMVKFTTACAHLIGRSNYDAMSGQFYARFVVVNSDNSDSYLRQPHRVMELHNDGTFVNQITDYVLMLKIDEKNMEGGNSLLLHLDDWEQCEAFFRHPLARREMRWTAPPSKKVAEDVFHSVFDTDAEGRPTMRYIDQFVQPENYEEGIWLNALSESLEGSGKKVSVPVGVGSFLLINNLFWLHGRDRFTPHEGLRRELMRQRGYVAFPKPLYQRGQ
Described as above. Conditions: whole cells, endogenously formed glutarate; Fe(II) and 2-oxoglutarate dependent; 96 h. It counts as cell-based.

In the case of `O=C(O)CCCC(=O)O` [glutarate], the “L-2HG formation by engineered C. glutamicum, HPLC of supernatant” value in experiment [1] was “the three strains produced and secreted L-2HG”; in experiment [2], “the three strains produced and secreted L-2HG”.
